Reference: US20240307382A1, “MODULATORS OF THE INTEGRATED STRESS PATHWAY” (Calico Life Sciences LLC, priority 2017, published 2024)

What follows are molecules tested on HEK293T cells carrying the ATF4 luciferase reporter (assay: ATF4-Luc assay (ATF4 luciferase reporter, tunicamycin-treated cells)). Conditions: Homo sapiens, HEK-293T, 1 μg/mL tunicamycin, 7 hours.
Type: cell-based
Procedure, shortened: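 A stable HEK293T reporter line was made by placing the full-length human ATF4 5′-UTR ahead of a firefly luciferase sequence without its start methionine, delivered by retroviral transduction and puromycin selection. Cells were seeded at 30,000 per well in polylysine-coated 384-well plates, exposed next day to 1 μg/mL tunicamycin plus compound for 7 hours, and luminescence was read with One Glo.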

Q: Which EC50 does the source give for O=C(COc1ccc(Cl)cc1)NC12CCC(NC(=O)c3cc(C(F)F)no3)(CC1)C[C@@H]2O [Compound 1102, N-{(3S)4-[2-(4-chlorophenoxy)acetamido]-3-hydroxybicyclo[2.2.2]octan-1-yl}-3-(difluoromethyl)-1,2-oxazole-5-carboxamide] here?
A: < 50 nM

Q: How did the EC50 turn out when O=C(COc1ccc(Cl)c(Cl)c1)NC12CCC(NC(=O)c3cnc(C(F)F)o3)(CC1)C[C@@H]2O [Compound 1103, N-{(3S)-4-[2-(3,4-dichlorophenoxy)acetamido]-3-hydroxybicyclo[2.2.2]octan-1-yl}-2-(difluoromethyl)-1,3-oxazole-5-carboxamide] was run?
A: < 50 nM

Q: Which EC50 does the source give for O=C(COc1ccc(Cl)c(F)c1)NC12CCC(NC(=O)c3cnc(C(F)F)o3)(CC1)C[C@@H]2O [Compound 1104, N-{(3S)-4-[2-(4-chloro-3-fluorophenoxy)acetamido]-3-hydroxybicyclo[2.2.2]octan-1-yl}-2-(difluoromethyl)-1,3-oxazole-5-carboxamide] here?
A: < 50 nM

Q: For O=C(COc1ccc(Cl)c(F)c1)NC12CCC(NC(=O)c3cc(CO)ccn3)(CC1)[C@@H](O)C2 [Compound 1105, N-{(2S)-4-[2-(4-chloro-3-fluorophenoxy)acetamido]-2-hydroxybicyclo[2.2.2]octan-1-yl}-4-(hydroxymethyl)pyridine-2-carboxamide], which EC50 is on record?
A: < 50 nM

Q: CCc1ncc(C(=O)NC23CCC(NC(=O)COc4ccc(Cl)c(F)c4)(CC2)C[C@@H]3O)o1 [Compound 1106, N-{(2S)-4-[2-(4-chloro-3-fluorophenoxy)acetamido]-2-hydroxybicyclo[2.2.2]octan-1-yl}-2-ethyl-1,3-oxazole-5-carboxamide] was tested. Which EC50 did it give?
A: < 50 nM

Q: How did the EC50 turn out when Cc1nn(C)cc1C(=O)NC12CCC(NC(=O)COc3ccc(Cl)c(F)c3)(CC1)C[C@@H]2O [Compound 1107, N-{(2S)-4-[2-(4-chloro-3-fluorophenoxy)acetamido]-2-hydroxybicyclo[2.2.2]octan-1-yl}-1,3-dimethyl-1H-pyrazole-4-carboxamide] was run?
A: > 2000 nM

Q: For Cc1nn(C)cc1C(=O)NC12CCC(NC(=O)COc3ccc(Cl)c(F)c3)(CC1)[C@@H](O)C2 [Compound 1108, N-{(3S)-4-[2-(4-chloro-3-fluorophenoxy)acetamido]-3-hydroxybicyclo[2.2.2]octan-1-yl}-1,3-dimethyl-1H-pyrazole-4-carboxamide], which EC50 is on record?
A: 50 to 250 nM

Q: For O=C(COc1ccc(Cl)c(F)c1)NC12CCC(NC(=O)c3cc4cc(Cl)ccc4o3)(CC1)[C@@H](O)C2 [Compound 1109, 5-chloro-N-{(2S)-4-[2-(4-chloro-3-fluorophenoxy)acetamido]-2-hydroxybicyclo[2.2.2]octan-1-yl}-1-benzofuran-2-carboxamide], which EC50 is on record?
A: < 50 nM
